pIC50: −log10 of the molar value. Entries after “also recorded” stand apart in the source; their conditions may differ. Positions of bridges follow the written chain, without caps; N, C: chain ends. Residues, ends and D or L forms follow the SMILES beside them.

Assay [1] relates to HT29 human colon cancer cells. The class given is cell-based. The settings on record: inhibits cell growth by 50% at 24 hours of exposure; MTT or cell Titer-Glo; read-out: IC50s, HT29. An excerpt:
(FIG. 2A1-8, and FIG. 2B1-6).
(In general: In ATP-based viability assays light output follows the ATP content of the culture.)

In assay [2] the test system is MCF-7 human breast cancer cells. As to the kind of experiment: Flow cytometry forward/side scatter, proportion of dead cells, MCF7. The class given is cell-based. Particulars: 200 μM, 24 hr. The procedure: (§1) SW480 human colon cancer cells and MCF7 breast cancer cells were grown following the instructions of American Type Culture Collection (ATCC, Monassas, Va.). The cells were treated with the test peptides (YJB01, YJB05, or YJB06) for 24 hrs at concentrations ranging from 0 μM, to 200 μM and subjected to flow cytometric analysis following standard protocols.
(§2) SW480 human colon cancer cells and MCF7 breast cancer cells were grown following the instructions of American Type Culture Collection (ATCC, Monassas, Va.). The cells were treated with the test peptides for 24 hrs at concentrations ranging from 0 μM, to 200 μM and subjected to flow cytometry analysis following standard protocols. […] The circumscribed (gated, outlined) areas in the figure indicate dead cells; dead cells generally have higher density (side scatter) and smaller size (forward scatter) than living cells.
A general note: In flow cytometry, cells or beads pass a laser one at a time.

The subject of assay [3] is SW480 human colon cancer cells. As to the kind of experiment: Flow cytometry forward/side scatter, proportion of dead cells, SW480. Format: cell-based. The settings on record: 200 μM, 24 hr. The protocol: as §1, §2
Another assay concerns MCF7 breast cancer cells. The settings on record: 24 h. The procedure: (§3) 10,000 HT29 or SW480 human colon cancer cells, BxPC-3 human pancreatic cancer cells, and MCF7 and MDA-MB-231 breast cancer cells were obtained from American Type Culture Collection (ATTC), Manassas, Va., and were seeded in separate 96-well plates. After treatment with various concentrations (6.25 μM, 12.5 μM, 25 μM, 50 μM, 100 μM, or 200 μM) of test peptide for 24 h, cells were stained with MTT (3-(4,5-Dimethyl-2-thiazolyl)-2,5-diphenyl-2H-tetrazolium bromide, from Sigma-Aldrich) following the instructions of the manufacturer. Before dissolving MTT in SDS, the HT29 and SW480 cells were photographed using a digital camera connected with a phase-contrast microscope. (FIG. 2A1-8, and FIG. 2B1-6). Cells that are alive convert MTT into formazan in their active mitochondria and appear dark purple; dead cells are not stained by MTT and appear colorless.
(§4) The IC50 is the concentration of the test agent that inhibits cell growth by 50% at 24 hours of exposure. IC50s were determined using the MTT assay or using the cell Titer-Glo method and following the instructions of the manufacturer ([…]). […] (Sun, Y., and Rigas, B., (2008), Cancer Res., 68(20): 8269-8277).

Assay [4] relates to BxPC-3 human pancreatic cancer cells. The settings on record: 24 h. The procedure:
as §3, §4

The subject of assay [5] is MDA-MB-231 breast cancer cells. Particulars: 24 h. The protocol: as §3, §4
The subject of the next assay is peroxiredoxin 1. As to the kind of experiment: Oxidized peroxiredoxin 1 (Prx-O3) immunoblot in SW480 cells. The class given is cell-based, human. Particulars: 1 h, YJB01 20 μM and 100 μM, YJB05 100 μM. The protocol: The oxidized peroxiredoxin 1 (sulphonic-peroxiredoxin, Prx-O3) was detected by using the specific anti-Prx-O3 antibody. Briefly, after SW480 cells were treated with either no peptide, with YBJ01 (at 20 μM and 100 μM), or with YJB05 (at 100 μM) for 1 h, total cell lysates were collected and separated on the SDS-PAGE gel. The gel was electroblotted onto a nitrocellulose membrane and probed with anti-Prx-O3, followed by HRP-conjugated secondary antibody. Bands corresponding to sulphonic-peroxiredoxin were visualized by ECL
The oxidized peroxiredoxin 1 (sulphonic-peroxiredoxin, Prx-O3) was detected by using the specific anti-Prx-O3 antibody Briefly, after SW480 cells were treated with either no peptide, with YBJ01 (at 20 μM and 100 μM), or with YBJ05 (at 100 μM) for 1 h, total cell lysates were collected and separated on the SDS-PAGE gel. The gel was electroblotted onto a nitrocellulose membrane and probed with anti-Prx-O3, followed by HRP-conjugated secondary antibody. Bands corresponding to sulphonic-peroxiredoxin were visualized by ECL
(In general: A western blot detects proteins with antibodies after separation by electrophoresis.)

In assay [6] the test system is SW480 human colon cancer xenografts. In words: SW480 human colon cancer xenografts in nude mice, tumor volume. The class given is in vivo. Particulars: for reduction in tumor volume: vs vehicle. The procedure:
Xenografts were generated as described in FIG. 3A-B and Example 3 except where noted. Each animal had two xenografts, one on its right flank and one on the left. In these studies, the effect of two doses of YJB01, 100 μg and 500 μg per animal were evaluated. The doses were administrated intraperitoneally once a day dissolved in phosphate buffered saline (PBS). Control animals were injected with PBS. Tumor volume was determined as described in Example 3. Tumor volume is expressed as mean±SEM.
Xenografts were generated as described in the Example 3 except where noted. Each animal had two xenografts, one on its right flank and one on the left. In these studies, the effect of two doses of YJB01, 100 μg and 500 μg per animal were evaluated. The doses were administrated intraperitoneally once a day dissolved in phosphate buffered saline (PBS). Control animals were injected with PBS. Tumor volume was determined as described in Example 3. Tumor volume is expressed as mean±SEM.
Xenografts were generated as described in the Example 3 except that 8 Balb/c nude mice in each group were used in this experiment. Nude mice bearing SW480 xenografts were treated with 500 μg/day of YJB02 for 19 days. The doses were administrated intraperitoneally once a day dissolved in phosphate buffered saline (PBS). Control animals were treated with PBS.
Tumor volume was determined as described in Example 3. Tumor volume was monitored and graphed as set forth in FIG. 9A, and is expressed as mean±SEM.

The test system of assay [7] is SW480 human colon cancer cells. As to the kind of experiment: In vitro cell viability assay by MTT / cell Titer-Glo, SW480. The settings on record: 24 h. The protocol: as §3, §4
The effect of peptide YJB02 on SW480 colon cancer cells was compared to the effect of peptide YJB02 on the normal human colon epithelial cell line NCM460. […] The viability was determined as described in Example 2.

Where [8] appears, read: 500 μg intraperitoneally once a day for 10 days.

As to `CC[C@H](C)[C@H](NC(=O)[C@H](CCCCN)NC(=O)[C@@H](NC(=O)[C@H](CCC(N)=O)NC(=O)[C@H](CCCNC(=N)N)NC(=O)[C@@H]1CCCN1C(=O)[C@H](CCCCN)NC(=O)[C@@H]1CSSC[C@H](NC(=O)[C@H](Cc2c[nH]c3ccccc23)NC(=O)[C@@H](NC(=O)[C@H](C)N)[C@@H](C)O)C(=O)NCC(=O)N2CCC[C@H]2C(=O)N1)[C@@H](C)CC)C(=O)N[C@@H](Cc1c[nH]c2ccccc12)C(=O)N[C@@H](Cc1ccccc1)C(=O)N[C@@H](CCC(N)=O)C(=O)N[C@@H](CC(N)=O)C(=O)N[C@@H](CCCNC(=N)N)C(=O)N[C@@H](CCCNC(=N)N)C(=O)N[C@@H](CCSC)C(=O)N[C@@H](CCCCN)C(=O)N[C@@H](Cc1c[nH]c2ccccc12)C(=O)N[C@@H](CCCCN)C(=O)N[C@@H](CCCCN)C(=O)O` [YJB01] (H-ATWCGPCKPRQIKIWFQNRRMKWKK-OH; disulfide 4-7; N-terminus and C-terminus assumed), the pIC50 in assay [1] was 4.05; in the assay with MCF7 breast cancer cells, 4.16; in assay [4], 3.96; in [5] it was 4.06; in [7] it was 4.46. Moreover, in assay [2], the “dead cells, MCF7” value is 72.12%. The “dead cells, SW480” value in assay [3] stood at 81.19%. Besides, the “induction of the oxidized form of peroxiredoxin 1” value with peroxiredoxin 1 was “induced the oxidized form of peroxiredoxin; also recorded: capable of inducing oxidation”. Besides, the “reduction in tumor volume” value stood at 32% in [6] (100 μg intraperitoneally once a day for 21 days) and 60% in [6] (setting [8]). Moreover, the tumor volume was found to be 527 mm^3 in assay [6] (100 μg intraperitoneally once a day for 21 days, vehicle 776 mm^3) and 102 mm^3 in assay [6] (500 μg intraperitoneally once a day for 10 days, vehicle 257 mm^3). The “tumor volume compared to its baseline” value in [6] (setting [8]) is on record as “caused tumor regression”.

For the origin of these results see patent publication US8754047B2, “Peptide compositions and methods of use” (The Research Foundation for the State University of New York, priority 2008, dated 2014).
